Results reported in PubChem BioAssay (NCI).
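Step 1: Grow cells in 96-well plates. Step 2: Expose to compound for 48 hours at 5 concentrations. Step 3: Interpolate endpoints linearly; if unreached, use highest concentration. GI50 = concentration required for 50% inhibition of growth. At the TGI there is no net growth.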

Assays:
Test in all cases: NCI tumour cell line growth inhibition, 48 h
MDA-MB-435 = tested on: MDA-MB-435
HCT-116 colon = tested on: HCT-116 colon
SN12C renal = tested on: SN12C renal
UO-31 renal = tested on: UO-31 renal
HT29 colon = tested on: HT29 colon
HOP-92 NSCLC = tested on: HOP-92 NSCLC
TK-10 renal = tested on: TK-10 renal
RXF 393 renal = tested on: RXF 393 renal
SF-295 CNS = tested on: SF-295 CNS
PC-3 prostate = tested on: PC-3 prostate

SMILES	GI50 (MDA-MB-435) [µM]	TGI (MDA-MB-435) [µM]	GI50 (HCT-116 colon) [µM]	TGI (HCT-116 colon) [µM]	GI50 (SN12C renal) [µM]	TGI (SN12C renal) [µM]	GI50 (UO-31 renal) [µM]	TGI (UO-31 renal) [µM]	GI50 (HT29 colon) [µM]	TGI (HT29 colon) [µM]	GI50 (HOP-92 NSCLC) [µM]	TGI (HOP-92 NSCLC) [µM]	GI50 (TK-10 renal) [µM]	TGI (TK-10 renal) [µM]	GI50 (RXF 393 renal) [µM]	TGI (RXF 393 renal) [µM]	GI50 (SF-295 CNS) [µM]	TGI (SF-295 CNS) [µM]	GI50 (PC-3 prostate) [µM]	TGI (PC-3 prostate) [µM]
C=CCN1C=CC(=O)[C@H](O[Si](C)(C)C(C)(C)C)[C@@H]1/C=C/c1ccccc1	12.3	30.6	6.96	19.9	13.8	27.3	9.19	25.1	5.39	19	7.05	21.1	14	28.5	19	46.1	9.9	24.9	–	–
C=CCN(CC=C)C(=O)c1cc(C)nc2c1c(=O)n(-c1ccccc1)c(=O)n2CC(O)CN1CCN(c2ncccn2)CC1 (stereo unspecified)	> 100	> 100	> 100	> 100	> 100	> 100	> 100	> 100	> 100	> 100	> 100	> 100	> 100	> 100	–	–	> 100	> 100	–	–
CCCCc1ccc(-n2c3nc(=O)n(C)c(=O)c-3nc3ccccc32)cc1	–	–	–	25.6	–	20.9	–	25.1	–	11.8	–	–	–	27.5	–	34.1	–	23.1	–	–
NC1CCCCC1N.O=S(=O)([O-])CCCN1CCOCC1.O=S(=O)([O-])CCCN1CCOCC1.[Pt+4]	–	–	4.2	> 100	10.7	> 100	19.3	> 100	12.8	> 100	32.4	> 100	> 100	> 100	> 49.4	> 100	15.5	> 100	–	–
CCCCCCCCCCC(O)C1CCC(C(O)CCC(O)C2CCC(CCCCCCC[C@H](O)CC3=C[C@@H](C)OC3=O)O2)O1 (stereo partly specified)	–	–	3.48	> 53.4	–	> 100	–	> 86.1	–	> 100	–	> 100	–	> 100	–	33.9	–	> 100	–	–
COC1OC(C)C(O)CC1OS(=O)(=O)c1ccc(C)cc1 (stereo unspecified)	–	–	–	> 100	–	> 100	–	> 100	–	> 100	–	> 100	–	> 100	–	> 100	–	> 100	–	–
CCOC(=O)C1=C(Nc2ccc(Cl)cc2Cl)OC/C1=N\NS(=O)(=O)c1ccc(C)cc1	–	–	–	> 100	–	> 100	–	> 100	–	> 100	–	> 100	–	> 100	–	> 100	–	> 100	–	–
CCCC(C)C[C@@H](C)CC(C)/C=C(\C)c1oc(=O)c(C)c(O)c1C (stereo partly specified) (tested in a mixture with another compound)	–	–	–	32.3	–	29.1	–	27	–	27.6	–	–	–	33.7	–	26.6	–	25.9	–	–
Cc1cc(C)nc(NS(=O)(=O)c2ccc(Nc3c4ccc(Cl)cc4nc4c(C(=O)Nc5ccc(S(=O)(=O)N=C(N)N)cc5)cccc34)cc2)n1	–	–	–	> 100	–	> 100	–	> 100	–	> 100	–	–	–	> 100	–	> 100	–	> 100	–	–
COc1c(Cl)c2c(c(OC)c1OC)-c1ccc(SC)c(=O)cc1[C@@H](NC(=O)OCC(F)(F)F)CC2	< 0.01	< 0.01	< 0.01	0.218	< 0.01	> 100	–	> 61.9	< 0.01	23.8	< 0.0179	7.03	6.11	> 100	–	–	< 0.01	2.98	< 0.01	> 72.8
Cc1cc(N2CCCC2)nc(NC2CCCC(Nc3ccnc4cc(Cl)ccc34)C2)n1 (stereo unspecified)	1.56	3.11	0.442	1.68	–	–	1.05	2.29	–	–	–	–	2.55	4.56	1.33	2.71	1.47	2.89	–	–
CCc1nc(N)nc(C(=O)NCCNC(=O)c2nc(N)nc(CC)c2C)c1C	–	–	–	> 100	–	> 100	–	> 100	–	> 100	–	> 100	–	> 100	–	> 100	–	> 100	–	–
COc1ccc2c(CN3CCC[C@H]3C(=O)O)cc3cc4c(cc3c2c1)OCO4	14.7	30.4	4.8	> 100	6.04	73.2	17	> 100	8.46	62	17.4	82.5	14.7	67.4	6.81	23.2	8.88	39.4	–	–
Nc1ncn(C2C=C(CO)C(O)C2O)c(=O)n1 (stereo unspecified)	–	–	–	> 100	–	> 100	–	> 100	–	–	–	–	–	> 100	–	> 100	–	–	–	–
COC(=O)C(=O)C(C#N)c1ccc(CC#N)cc1 (stereo unspecified)	–	–	–	> 100	–	> 100	–	> 100	–	> 100	–	> 100	–	> 100	–	–	–	> 100	–	–
O=c1[nH]c2c3ccccc3ccc2c2cc3c(cc12)OCO3	–	–	–	> 100	–	> 100	–	> 100	–	> 100	–	–	–	> 100	–	> 100	–	> 100	–	–
C=C(C)CN(CC#N)CC(=C)C	–	> 100	–	> 100	–	> 100	–	> 100	–	> 100	–	–	–	> 100	–	> 100	–	> 100	–	> 100
O=C([CH-]C(=O)c1ccccc1)c1ccccc1.O=C([CH-]C(=O)c1ccccc1)c1ccccc1.O=C([CH-]C(=O)c1ccccc1)c1ccccc1.[OH3+].[Y+3]	–	–	4.18	18.3	4.68	26.7	4.51	14.7	4.09	17.1	10	25.3	7.78	68.4	–	–	3.99	19.1	–	–
CCn1c(O)c(C=N)c(=O)n(CC)c1=O	–	–	–	> 100	–	> 100	–	> 100	–	> 100	–	> 100	–	> 100	–	> 100	–	> 100	–	–
